Assay results as given in patent US20100087539A1, “N'--3-AMINO-3-PHENYLPROPEONIC ACID AND THE PHARMACEUTICALLY ACCEPTABLE DERIVATIVES THEREOF, A METHOD FOR THE PRODUCTION AND THE USE THEREOF IN THE FORM OF A MEDICINAL AGENT” (priority 2006, published 2010).
Like-named read-outs stand apart in the source and are kept apart here.

Tests used:
HIV-1/EVK [1] = assay: microbe, parasite or virus in culture; type: cell-based; settings: added after virus adsorption; for EC50: read-out: Protection of cells from death PD50
Protocol: The Anti-HIV activity of dipeptide 1 was studied on a highly HIV-sensitive cell culture MT-4. […] Then, aliquots of serial dilutions of dipeptide 1 in DMSO were added into the wells to the final concentrations of 0.1 ng/ml to 1 μg/ml (each concentration in triplicate). The experimental (with the preparation added) and control (without the preparation added) infected cells were cultivated at 37° C. and 5% CO2 for 4 days. […] 3, p. […] The inhibiting dose for dipeptide 1 is 0.4 μM. The dose of the compound protecting the cells from death (PD50) was also determined. […] Additionally, the selectivity index (IS) calculated as a ratio of the toxic dose of dipeptide 1 to the protection dose thereof PD50 (CD50/PD50) was determined.

B-cellular immunity = B-cellular immunity upon immunization with BSA, specific antibody titer by enzyme-linked immunoassay; type: in vivo, mice; settings: for Antibody titer (inverse value): mice, s.c. BSA with compound, sera at day 10 post second immunization; for Immunogenicity coefficient: relative to BSA without the preparation
Protocol: 400 μg of BSA was injected subcutaneously to the animals in 0.5 ml of 0.9% NaCl. Three groups of control animals were involved. […] Additionally, glycyrrhizinic acid (GA) was used as a known immunomodulator. Preimmune mice served as a control. At day 21 the second immunization was performed similarly (the injection solution contained 100 μg of BSA and 200 μg of the test compound). At day 10 post the second immunization blood sera were collected. The titer of antibodies was determined by an enzyme-linked immunoassay technique according to the procedure as described [Enzyme-linked immunoassay technique//Edited by T. T. Igo, G. Lenkhoffaju—Moscow: Mir, 1998].

HIV-1/EVK [2] = assay: microbe, parasite or virus in culture; type: cell-based; settings: added simultaneously with the virus
Protocol: The anti-HIV activity of dipeptide 1 was studied on a highly HIV-sensitive cell culture MT-4. The MT-4 cells were added into the wells of a 96-well culture plate and infected with a virus stock (strain HIV-1/EVK) at a multiplicity of infection of 0.2-0.5 tissue culture infective dose per cell, then the test substance was added into a cell suspension simultaneously with the virus to give the final concentration of 0.00001 to 1 μg/ml (each concentration in triplicate) and incubated at 37° C. for 1 h (virus adsorption). On completion of the incubation, the suspension of the infected cells was diluted with a complete growth medium with all supplements as described above containing the preparations in the same concentrations to give the inoculation concentration of 0.5×10^6 cells/ml.
The experimental (with the preparation added) and control (without the preparation added) infected cells and control uninfected cells (without the preparation added) were cultivated at 37° C. and 5% CO2 for 4 days. On completion of the incubation the proportion of viable cells was counted in a Gorjaev's chamber after staining with a 0.4% trypan blue solution and the accumulation level of virus-specific protein p24 was controlled by the immunoenzyme method as described [Fedyuk N. V., Konovalov E. E., Loktev V. B., Uryvaev L. V., Kulyandin S. A., Pokrovsky A. G.//Problems of Virology, 1992, v. 3, p. 135].
In addition, the inhibiting dose ID90 that corresponds to the concentration of dipeptide 1 suppressing the virus production by 90% was determined. […] PD50, the concentration of dipeptide 1 protecting by 50% the infected cells from the virus-induced cytopathic effect was also calculated as described earlier by us [Svinarchuk P. P., Konevetz D. A., Pliasunova O. A., Pokrovsky A. G., Vlassov V. V.//Biochimie, 1993, Bd. 75, S. 243]. […] Comparing the concentrations inducing 50 and 90% inhibition of virus accumulation provides an important characteristic of the anti-viral activity.

MT-4 cells [3] = settings: human, 4 days
T-cellular immunity = T-cellular immunity upon immunization with sheep red blood cells, rosette formation method; type: in vivo, mice; settings: for Number of rosettes per 10^3 cells: mice, s.c. SRBC with compound (10 mg/kg), splenocytes at day 6; for Stimulation index: rosettes with compound / rosettes with SRBC alone
Protocol: The effect on stimulating T-cellular immunity upon injection with a strong antigen of sheep red blood cells (SRBC) was studied by the rosette formation method.
Outbred male mice weighing 20-22 g were used in the experiment. […] SRBC without dipeptide 1 (negative control) or SRBC with IFA or with GA (positive control) were injected to the control animals; another control group—preimmune animals. At day 6 post immunization a suspension of splenocytes was prepared at a concentration of […] per 1 milliliter. 0.9 ml of the splenocyte suspension and 0.1 ml of a suspension of sheep red blood cells (10^9 cells per milliliter) were placed in glass vials, mixed and incubated for 16 h at 4° C. After incubation, 4 ml of a cold medium was added into the glass vial, carefully mixed; 100 μl of cell suspension was withdrawn using a pipette with a wide-bore mouth, stained with a 0.4% trypan blue solution and the number of rosettes was counted in a Gorjaev's chamber [Friemel H Immunological methods/Translated from German, edited by M. A. Frolova.—Moscow: Mir, 1979, 518 p.]. The results are presented as the number of rosettes formed per […]. The stimulation index was calculated as a ratio of the number of rosettes in the experiment (immunization with SRBC in a mixture with the compound studied) and the number of rosettes in the control (immunization with SRBC alone).

MT-4 cells [4] = assay: Cytotoxicity on MT-4 cells (trypan blue viable cell count, 4 days); settings: concentration reducing by 50% the proportion of viable MT-4 cells
white outbred mice = assay: Acute toxicity, intraperitoneal injection; type: in vivo
Protocol: 0.5 ml of the compound was injected intraperitoneally to mice weighing 20 g, each group comprising 4 animals. 0.5 ml of sterile sunflower oil was injected to the control mice.

[5] = Human immunodeficiency virus 1, MT4, 96 h, MT-4, HIV-1/EVK, 4 days, read-out: Inhibition of P24 accumulation ID50

For `C=C(C)[C@@H]1CC[C@]2(C(=O)NCCCCCCCCC(=O)NC(CC(=O)O)c3ccccc3)CC[C@]3(C)C(CCC4[C@@]5(C)CCC(=O)C(C)(C)C5CC[C@]43C)C12` (stereo partly drawn) [Compound 9], the “IS (selectivity index)” value (HIV-1/EVK [1]; CD50/ID50) was 14.0, the IC50 (HIV-1/EVK [1]; [5]) was 400 nM and the EC50 (HIV-1/EVK [1]; Human immunodeficiency virus 1, MT4, MT-4, HIV-1/EVK) was 500 nM. The “Inhibition of P24 accumulation ID90” value (HIV-1/EVK [1]; MT-4, HIV-1/EVK, 4 days) was “Not achieved”, the “Antibody titer (inverse value)” value (B-cellular immunity) was 51200 and the Immunogenicity coefficient (B-cellular immunity) was 256. For the same compound, the “IS (selectivity index)” value (HIV-1/EVK [2]; CD50/ID50) was 2135, the IC50 (HIV-1/EVK [2]; [5]) was 2.6 nM and the “Inhibition of P24 accumulation ID90” value (HIV-1/EVK [2]; MT-4, HIV-1/EVK, 4 days) was 198 nM. The CD50 (MT-4 cells [3]) was 5.6 µM, the “Number of rosettes per 10^3 cells” value (T-cellular immunity) was 21 ± 1.4 and the Stimulation index (T-cellular immunity) was 1.8.

For `CC1(C)[C@@H](O[C@H]2O[C@H](C(=O)O)[C@@H](O)[C@H](O)[C@H]2O[C@@H]2O[C@H](C(=O)O)[C@@H](O)[C@H](O)[C@H]2O)CC[C@]2(C)[C@H]3C(=O)C=C4[C@@H]5C[C@@](C)(C(=O)O)CC[C@]5(C)CC[C@@]4(C)[C@]3(C)CC[C@@H]12` [GA, glycyrrhizinic acid], the “Antibody titer (inverse value)” value (B-cellular immunity) was 5120, the Immunogenicity coefficient (B-cellular immunity) was 25.6 and the “Number of rosettes per 10^3 cells” value (T-cellular immunity) was 24 ± 1.1. The Stimulation index (T-cellular immunity) was 2.0.

For “N′-{N-[3-oxo-lupan-28-oyl]-9-aminononanoyl}-3-amino-3-phenylpropionic acid [Compound 1]”, the CD50 (MT-4 cells [4]) was 6.8 µM, the “Inhibition of P24 accumulation ID90” value (HIV-1/EVK [1]; MT-4, HIV-1/EVK, 4 days) was “Not achieved” and the EC50 (HIV-1/EVK [1]; MT-4, HIV-1/EVK) was 250 nM. The “Inhibition of P24 accumulation ID90” value (HIV-1/EVK [2]; MT-4, HIV-1/EVK, 4 days) was 100 nM, the EC50 (HIV-1/EVK [2]; concentration protecting by 50% the infected cells from virus-induced cytopathic effect, read-out: PD50) was 15 nM and the hazard class (white outbred mice; from LD50, mice) was “class 3 of moderately hazardous substances”. The LD50 (white outbred mice; mice of both sexes) was “more than 2500 mg/kg” and the “Number of rosettes per 10^3 cells” value (T-cellular immunity) was 24 ± 1.3.
